Molecules are shown by their SMILES. Read-outs that look alike come from different tables or passages of the source.

One series can be described thus: physchem. The note with it: water, pH 10, water, thermodynamic from solid.
The conditions of series [1]: 5 weeks at 70°C.

For orientation: solubility means the dissolved amount per volume that the medium holds. With `O=c1[nH]cnc2c1ncn2[C@@H]1O[C@H](CO)C[C@@H]1F` [Sodium F-ddI Hemihydrate, sodium-2',3'-dideoxy-2'-fluoroinosine], in “physchem”, the solubility was ~400 mg/mL.

Regarding `OC[C@@H]1CC[C@H](n2cnc3c(O)ncnc32)O1.[Na]` [Na-DDI·H2O, sodium-2',3'-dideoxyinosine], the “Aqueous Solution Stability, loss” value by setting is: (1 week at 50°C) 5%; (1 week at 70°C) 10%. Besides, in series [1], the “Solid State Stability” value is “No loss”.

The values are drawn from patent publication EP0398230B1, “Antiviral, highly water soluble, stable, crystalline salts of 2',3'-dideoxyinoside monohydrate, 2',3'-dideoxy-2',3'-didehydrothymidine monohydrate and 2',3'-dideoxy-2'-fluoroinosine hemihydrate” (priority 1989, dated 1990).
